Counter-ions that a name gives are not always drawn.
The compounds below were run on GT-1a pRLuc H771b 75 S/I subgenomic replicon cell line (assay: HCV GT-1a replicon luciferase reporter assay). Conditions: Hepatitis C virus, GT1A, 72 h, read-out: GT-1a (IC50) (nM).
Assay type: cell-based
Text: Determination of compounds HCV GT1b inhibitory replicon activity using the replicon luciferase reporter assay
The 2209-23 cell line was developed at Roche by stable transfection of the hepatoma cell line Huh-7 with a GT-1b Con1 subgenomic bicistronic replicon as previously described. Subgenomic replicon cell line was established in cured Huh7 cells, obtained from R. Bartenschlager (J. Virol. 2003 March; 77 (5):3007-19) The GT-1a H77 subgenomic replicon vector pRLuc H771b 75 S/I, was created by replacing the non structural region of the GT-1b Con1 subgenomic replicon by the one of the H77 strain, except for the first 75 amino acids of the NS3 protein that are from GT-1b Con1 strain. (J. Virol. 2001 77:5352-59) The GT-1a pRLuc H771b 75 S/I subgenomic replicon cell line was established in cured Huh7 cells, obtained from R. Bartenschlager. (J. Virol. 2003 March; 77 (5):3007-19)
All the subgenomic replicon cell lines were cultured in Dulbecco's Modified Eagle Medium (DMEM-Glutamax™-I; Invitrogen Cat #10569-010). The medium was supplemented with 10% Fetal Bovine Serum (Invitrogen Cat #10082-147), 1% penicillin/streptomycin (Mediatech Cat #30-002-CI) and 500 μg/ml of G418 (Mediatech Cat #30-234-CI). Cells were maintained at 37° C. in a humidified 5% CO2 atmosphere.
2209-23 cells were plated at a cell density of 5000 cells per well in 96 well plates (Becton Dickinson, Cat #35 3296). Cells were plated in 90 μl of Dulbecco's Modified Eagle Medium (DMEM-Glutamax™-I), (Invitrogen Cat #10569-010) medium was supplemented with 5% Fetal Bovine Serum (Invitrogen Cat #10082-147), 1% penicillin/streptomycin (Mediatech Cat #30-002-CI). The pRluc H771b 75 S/I cells were plated in 96-well plate at 3000 cells/well in DMEM-Glutamax™-I containing 5% FBS and 1% penicillin/streptomycin in 90 μl final volume. Cells were allowed to equilibrate for 24 hours at 37° C. and 5% CO2 at which time compounds were added. Compounds (or medium as a control) were added 24 hours post-plating in 3 fold dilutions at a final DMSO concentration of 1% in 10 ul volume. Renilla luciferase reporter signal was read 72 hours after addition of compounds using the Renilla Luciferase Assay System (Promega, cat #E2820). EC50 values were defined as the compound concentration at which a 50% reduction in the levels of renilla luciferase reporter was observed as compared to control samples in the absence of compound and was determined by non-linear fitting of compound dose-response data. The EC50 was approximated if maximum percentage inhibition was less than 90% and more than 70%.

Row | Structure (SMILES) | IC50
1 | COC(=O)N[C@H]1CCc2cccc3c2N(C1=O)[C@H](c1ncc(-c2ccc(-c4ccc(-c5ccc6nc([C@@H]7CC(F)(F)CN7C(=O)[C@@H](NC(=O)OC)C(C)C)[nH]c6c5)cc4)cc2)[nH]1)C3 [Compound I-4, {(2S,5S)-2-[5-(4′-{2-[(S)-4,4-Difluoro-1-((S)-2-methoxycarbonylamino-3-methyl-butyryl)-pyrrolidin-2-yl]-3H-benzoimidazol-5-yl}-biphenyl-4-yl)-1H-imidazol-2-yl]-4-oxo-1,2,4,5,6,7-hexahydro-azepino[3,2,1-hi]indol-5-yl}-carbamic acid methyl ester] | 4.11 nM
2 | COC(=O)N[C@H]1CCc2cccc3c2N(C1=O)[C@H](c1ncc(-c2ccc(-c4ccc(-c5ccc6nc([C@@H]7CCCN7C(=O)[C@@H](NC(=O)OC)C(C)C)[nH]c6c5)nc4)cc2)[nH]1)C3 [Compound I-7, ((2S,5S)-2-{5-[4-(6-{2-[(S)-1-((S)-2-Methoxycarbonylamino-3-methyl-butyryl)-pyrrolidin-2-yl]-3H-benzoimidazol-5-yl}-pyridin-3-yl)-phenyl]-1H-imidazol-2-yl}-4-oxo-1,2,4,5,6,7-hexahydro-azepino[3,2,1-hi]indol-5-yl)-carbamic acid methyl ester] | 32.2 nM
3 | COC(=O)N[C@H]1CCc2cccc3c2N(C1=O)[C@H](c1ncc(-c2ccc(-c4ccc(-c5cnc([C@@H]6CC7(CN6C(=O)[C@@H](NC(=O)OC)C(C)C)OCCO7)[nH]5)cc4)cc2)[nH]1)C3 [Compound I-8, {(2S,5S)-2-[5-(4′-{2-[(S)-7-((S)-2-Methoxycarbonylamino-3-methyl-butyryl)-1,4-dioxa-7-aza-spiro[4.4]non-8-yl]-3H-imidazol-4-yl}-biphenyl-4-yl)-1H-imidazol-2-yl]-4-oxo-1,2,4,5,6,7-hexahydro-azepino[3,2,1-hi]indol-5-yl}-carbamic acid methyl Ester] | 2.54 nM
4 | COC(=O)N[C@H]1CCc2cccc3c2N(C1=O)[C@H](c1nc2ccc(-c4ccc(-c5ccc(-c6cnc([C@@H]7CCCN7C(=O)[C@@H](NC(=O)OC)C(C)C)[nH]6)cc5)nc4)cc2[nH]1)C3 [Compound I-12, ((2S,5S)-2-{6-[6-(4-{2-[(S)-1-((S)-2-Methoxycarbonylamino-3-methyl-butyryl)-pyrrolidin-2-yl]-3H-imidazol-4-yl}-phenyl)-pyridin-3-yl]-1H-benzoimidazol-2-yl}-4-oxo-1,2,4,5,6,7-hexahydro-azepino[3,2,1-hi]indol-5-yl)-carbamic acid methyl ester] | 18.6 nM
5 | COC(=O)N[C@H]1CCc2cccc3c2N(C1=O)[C@H](c1nc2ccc(-c4ccc(-c5ccc(-c6cnc([C@@H]7CC(F)(F)CN7C(=O)[C@@H](NC(=O)OC)C(C)C)[nH]6)cc5)nc4)cc2[nH]1)C3 [Compound I-13, ((2S,5S)-2-{6-[6-(4-{2-[(S)-1-((S)-2-Methoxycarbonylamino-3-methyl-butyryl)-4,4-difluoro-pyrrolidin-2-yl]-3H-imidazol-4-yl}-phenyl)-pyridin-3-yl]-1H-benzoimidazol-2-yl}-4-oxo-1,2,4,5,6,7-hexahydro-azepino[3,2,1-hi]indol-5-yl)-carbamic acid methyl ester] | 41.8 nM
6 | COC(=O)N[C@H]1CCc2cccc3c2N(C1=O)[C@H](c1ncc(-c2cnc(-c4ccc(-c5cnc([C@@H]6CCCN6C(=O)[C@@H](NC(=O)OC)C(C)C)[nH]5)cc4)nc2)[nH]1)C3 [Compound I-15, ((2S,5S)-2-{5-[2-(4-{2-[(S)-1-((S)-2-Methoxycarbonylamino-3-methyl-butyryl)-pyrrolidin-2-yl]-3H-imidazol-4-yl}-phenyl)-pyrimidin-5-yl]-1H-imidazol-2-yl}-4-oxo-1,2,4,5,6,7-hexahydro-azepino[3,2,1-hi]indol-5-yl)-carbamic acid methyl ester] | 13.4 nM
7 | COC(=O)N[C@H]1CCc2cccc3c2N(C1=O)[C@H](c1ncc(-c2cnc(-c4ccc(-c5cnc([C@@H]6CC(F)(F)CN6C(=O)[C@@H](NC(=O)OC)C(C)C)[nH]5)cc4)nc2)[nH]1)C3 [Compound I-16, ((2S,5S)-2-{5-[2-(4-{2-[(S)-1-((S)-2-Methoxycarbonylamino-3-methyl-butyryl)-4,4-difluoro-pyrrolidin-2-yl]-3H-imidazol-4-yl}-phenyl)-pyrimidin-5-yl]-1H-imidazol-2-yl}-4-oxo-1,2,4,5,6,7-hexahydro-azepino[3,2,1-hi]indol-5-yl)-carbamic acid methyl ester] | 29.2 nM
8 | COC(=O)N[C@H]1CCc2cccc3c2N(C1=O)[C@H](c1ncc(-c2cnc(-c4ccc5cc(-c6cnc([C@@H]7CCCN7C(=O)[C@@H](NC(=O)OC)C(C)C)[nH]6)ccc5c4)nc2)[nH]1)C3 [Compound I-17, ((2S,5S)-2-{5-[2-(6-{2-[(S)-1-((S)-2-Methoxycarbonylamino-3-methyl-butyryl)-pyrrolidin-2-yl]-3H-imidazol-4-yl}-naphthalen-2-yl)-pyrimidin-5-yl]-1H-imidazol-2-yl}-4-oxo-1,2,4,5,6,7-hexahydro-azepino[3,2,1-hi]indol-5-yl)-carbamic acid methyl ester] | 3.2 nM
9 | COC(=O)N[C@H]1CCc2cccc3c2N(C1=O)[C@H](c1ncc(-c2cnc4cc(-c5ccc(-c6cnc([C@@H]7CCCN7C(=O)[C@@H](NC(=O)OC)C(C)C)[nH]6)cc5)ccc4c2)[nH]1)C3 [Compound I-18, ((2S,5S)-2-{5-[7-(4-{2-[(S)-1-((S)-2-Methoxycarbonylamino-3-methyl-butyryl)-pyrrolidin-2-yl]-3H-imidazol-4-yl}-phenyl)-quinolin-3-yl]-1H-imidazol-2-yl}-4-oxo-1,2,4,5,6,7-hexahydro-azepino[3,2,1-hi]indol-5-yl)-carbamic acid methyl ester trifluoacetic acid salt] | 21.6 nM
10 | COC(=O)N[C@H]1CCc2cccc3c2N(C1=O)[C@H](c1ncc(-c2cnc4cc(-c5ccc(-c6[nH]c([C@@H]7CCCN7C(=O)[C@@H](NC(=O)OC)C(C)C)nc6Cl)cc5)ccc4c2)[nH]1)C3 [Compound I-20, ((2S,5S)-2-{5-[7-(4-{5-Chloro-2-[(S)-1-((S)-2-methoxycarbonylamino-3-methyl-butyryl)-pyrrolidin-2-yl]-3H-imidazol-4-yl}-phenyl)-quinolin-3-yl]-1H-imidazol-2-yl}-4-oxo-1,2,4,5,6,7-hexahydro-azepino[3,2,1-hi]indol-5-yl)-carbamic acid methyl ester trifluroacetic acid, trifluoroacetic acid salt] | 12 nM
11 | COC(=O)N[C@H]1CCc2cccc3c2N(C1=O)[C@H](c1ncc(-c2ccc(-c4ccc5cc(-c6cnc([C@@H]7CCCN7C(=O)[C@@H](NC(=O)OC)C(C)C)[nH]6)ccc5n4)cc2)[nH]1)C3 [Compound I-21, ((2S,5S)-2-{4-[4-(6-{2-[(S)-1-((S)-2-Methoxycarbonylamino-3-methyl-butyryl)-pyrrolidin-2-yl]-1H-imidazol-4-yl}-quinolin-2-yl)-phenyl]-1H-imidazol-2-yl}-4-oxo-1,2,4,5,6,7-hexahydro-azepino[3,2,1-hi]indol-5-yl)-carbamic acid methyl ester trifluroacetic acid, trifluoroacetic acid salt] | 0.395 nM
12 | COC(=O)N[C@H]1CCc2cccc3c2N(C1=O)[C@H](c1ncc(-c2ccc4nc(-c5ccc(-c6cnc([C@@H]7CCCN7C(=O)[C@@H](NC(=O)OC)C(C)C)[nH]6)cc5)ccc4c2)[nH]1)C3 [Compound I-22, ((2S,5S)-2-{5-[2-(4-{2-[(S)-1-((S)-2-Methoxycarbonylamino-3-methyl-butyryl)-pyrrolidin-2-yl]-1H-imidazol-4-yl}-phenyl)-quinolin-6-yl]-1H-imidazol-2-yl}-4-oxo-1,2,4,5,6,7-hexahydro-azepino[3,2,1-hi]indol-5-yl)-carbamic acid methyl ester trifluroacetic acid, trifluoroacetic acid salt] | 1.45 nM
13 | COC(=O)N[C@H]1CCc2cccc3c2N(C1=O)[C@H](c1ncc(-c2ccc(-c4ccc5cc(-c6cnc([C@@H]7CCCN7C(=O)[C@@H](NC(=O)OC)C(C)C)[nH]6)ccc5c4)nc2)[nH]1)C3 [Compound I-23, ((2S,5S)-2-{4-[6-(6-{2-[(S)-1-((S)-2-Methoxycarbonylamino-3-methyl-butyryl)pyrrolidin-2-yl]-3H-imidazol-4-yl}-naphthalen-2-yl)-pyridin-3-yl]-1Himidazol-2-yl}-4-oxo-1,2,4,5,6,7-hexahydro-azepino[3,2,1-hi]indol-5-yl)-carbamic acid methyl ester di-trifluoroacetic acid salt] | 0.767 nM

Source: US20120230951A1 (priority 2011, published 2012)
